From ChEMBL document CHEMBL5725790, “Compositions and methods for the production of pyrimidine and pyridine compounds with BTK inhibitory activity” (2017) come the findings set out here.

Some results are limits rather than exact numbers.

The target of the experiment is Tyrosine-protein kinase BTK (Homo sapiens, UniProt Q06187). Kind of experiment: Enzyme Assay: The following describes a microfluidic, off-chip mobility shift kinase assay used to measure inherent potency of compounds against BTK enzyme. Compounds described by embodiments of the present invention were assayed using this protocol and the data from the same is recorded in Table 2 within the column labeled: Time Dependent BTK Enzyme Assay IC50. […] Stopped reactions were monitored at −2 PSI, −3000 V/−700 V in a LabChip 3000 plate reader from Caliper Life Sciences, a PerkinElmer Company (Hopkinton, Mass.), and the activity was measured by off-chip mobility shift assay measuring the charge/mass difference between substrate and product resulting from peptide phosphorylation. IC50 and efficacy were determined by plotting log [Inhibitor] vs. % Activity in GeneData Screener (Basel, Switzerland). Compounds described by embodiments of the present invention were assayed using this protocol and the data from the same is recorded in Table 2 within the column labeled: Time Dependent […] BTK Enzyme Assay IC50.
Chain of Tyrosine-protein kinase BTK (Q06187 whole entry): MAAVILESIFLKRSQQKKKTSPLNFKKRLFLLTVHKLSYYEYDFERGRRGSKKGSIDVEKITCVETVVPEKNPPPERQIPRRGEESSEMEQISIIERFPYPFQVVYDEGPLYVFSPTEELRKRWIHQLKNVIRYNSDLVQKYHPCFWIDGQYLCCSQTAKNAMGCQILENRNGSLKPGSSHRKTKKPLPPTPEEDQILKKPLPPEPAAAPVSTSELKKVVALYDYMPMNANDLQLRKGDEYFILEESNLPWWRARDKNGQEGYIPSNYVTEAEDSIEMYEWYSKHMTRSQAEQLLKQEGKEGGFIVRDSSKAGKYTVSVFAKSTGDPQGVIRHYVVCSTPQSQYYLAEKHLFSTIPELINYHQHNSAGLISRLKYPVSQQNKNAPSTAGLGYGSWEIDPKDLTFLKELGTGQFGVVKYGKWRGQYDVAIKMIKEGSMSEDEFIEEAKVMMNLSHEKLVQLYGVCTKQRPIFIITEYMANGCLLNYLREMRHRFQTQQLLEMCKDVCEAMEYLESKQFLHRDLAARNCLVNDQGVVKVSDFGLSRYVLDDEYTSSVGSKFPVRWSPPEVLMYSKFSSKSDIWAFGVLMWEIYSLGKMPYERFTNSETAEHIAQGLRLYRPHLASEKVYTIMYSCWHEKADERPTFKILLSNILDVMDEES
Turning to `C=CC(=O)Nc1cccc(Oc2ncnc(N)c2-c2cnn(Cc3cccc(S(C)(=O)=O)c3)c2)c1`, the IC50 is below 1000 nM. On to `CCC(=O)Nc1cccc(Oc2ccnc(C(N)=O)c2-c2ccc(Oc3ccccc3)cc2)c1`, for which the IC50 was above 1000 nM. On to `C=CC(=O)N1CC2(CC(Nc3ncnc(N)c3-c3cnn(Cc4ccncc4)c3)C2)C1`, for which the IC50 was above 1000 nM.

As for `CCC(=O)Nc1cccc(Oc2ccncc2-c2ccc(Oc3ccccc3)cc2)c1`, the 50% inhibitory concentration (IC50) was above 1000 nM. Consider `Nc1ncnc(NC2CC3(C2)CN(S(=O)(=O)CCCl)C3)c1-c1ccc(Oc2ccccc2)cc1`, for which the IC50 was below 100 nM. With `C=CC(=O)Nc1cncc(Oc2ncnc(N)c2-c2ccc(Oc3ccc(C#N)cc3)cc2)c1`, the IC50 was below 1000 nM. Regarding `C=CC(=O)Nc1cccc(Oc2ncnc(N)c2-c2ccc(Oc3ccccc3)cc2)c1F`, the IC50 is below 100 nM. For the compound `N#CC1(C(=O)Nc2cccc(-c3c(N)ncnc3Oc3ccc(Oc4ccccc4)cc3)c2)CC1`, the IC50 is above 1000 nM.
